{"source": "patent US20030073826A1", "about": "(priority 2001, published 2003)", "origin": "cited, not measured here", "system": "bacteria", "conditions": "U.S. Pat. No. 3,496,163, Example 2"}
{"smiles": "CCC[C@@H]1C[C@@H](C(=O)NC(C(C)Cl)C2OC(SC)C(O)C(O)C2O)N(C)C1", "note": "(stereo partly shown) [clindamycin free base]", "values": [{"measurement": "antibacterial spectrum compared with the hydrochloride salt of clindamycin", "value": "same scope and magnitude"}]}
